Usually EC50 stands for the concentration at which the effect is half-maximal. A high value points to lower potency in that assay.

Here are results for 18 molecules from patent publication US9834542B2, “LXR modulators” (BRISTOL-MYERS SQUIBB COMPANY, priority 2013, dated 2017).

For this assay, the target named is T1, LXRβ (Homo sapiens, UniProt P55055).
T1 construct: Co-transfection expression plasmids, comprising full-length LXRα (pCMX-h LXRα[…] or LXRβ (pCMX-hLXRβ)); expressed in transfected cells; host or cells: CV-1 African Green Monkey Kidney Cells
T1 sequence (P55055 1-460): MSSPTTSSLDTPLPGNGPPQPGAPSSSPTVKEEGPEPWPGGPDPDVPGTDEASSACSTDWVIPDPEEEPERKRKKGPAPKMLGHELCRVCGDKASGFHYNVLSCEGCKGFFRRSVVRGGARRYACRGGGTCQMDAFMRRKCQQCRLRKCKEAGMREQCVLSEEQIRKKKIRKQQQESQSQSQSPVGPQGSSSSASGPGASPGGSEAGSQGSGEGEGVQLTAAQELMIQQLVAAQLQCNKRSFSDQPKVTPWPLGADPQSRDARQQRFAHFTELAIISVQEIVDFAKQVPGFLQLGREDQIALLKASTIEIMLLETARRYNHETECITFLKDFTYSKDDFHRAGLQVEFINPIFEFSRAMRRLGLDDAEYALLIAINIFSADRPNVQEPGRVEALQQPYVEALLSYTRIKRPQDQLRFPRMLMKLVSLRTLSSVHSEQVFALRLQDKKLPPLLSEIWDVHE
T1 sequence (P19793 1-462 partner): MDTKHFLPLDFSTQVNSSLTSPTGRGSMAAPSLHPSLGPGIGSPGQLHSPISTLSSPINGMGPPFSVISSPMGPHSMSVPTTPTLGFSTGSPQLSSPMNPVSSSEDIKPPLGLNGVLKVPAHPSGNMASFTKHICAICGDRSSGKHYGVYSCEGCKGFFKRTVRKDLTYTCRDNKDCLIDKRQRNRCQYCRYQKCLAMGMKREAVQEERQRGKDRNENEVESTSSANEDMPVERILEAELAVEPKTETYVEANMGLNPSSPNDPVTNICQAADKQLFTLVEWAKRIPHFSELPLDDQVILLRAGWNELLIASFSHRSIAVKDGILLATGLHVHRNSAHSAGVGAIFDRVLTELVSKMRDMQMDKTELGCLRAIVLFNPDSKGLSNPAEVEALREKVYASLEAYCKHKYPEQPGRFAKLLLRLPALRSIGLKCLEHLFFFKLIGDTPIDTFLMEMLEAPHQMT
The assay can be described thus: Co-transfection assay (LXRE luciferase reporter), LXRβ. Type of assay: cell-based. Particulars: for EC50: CV-1 cells transfected with pCMX-hLXRβ and LXREx1-Tk-Luciferase, 20 hours incubation; for Emax: LXRβ co-transfection, relative to high control 1-(2,4-difluorobenzyl)-2-oxo-6-(4-phenoxyphenyl)-4-(trifluoromethyl)-1,2-dihydropyridine-3-carbonitrile, read-out: % Efficacy. The gist of the method:
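Luciferase output from an LXRE-Tk reporter measured after 20 h, 37 °C compound exposure of transiently transfected CV-1 cells expressing human LXRβ with endogenous RXR. EC50 fitted from 11-point half-log dose responses (mean of ≥2 runs); % efficacy versus maximal response of the reference agonist.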
For orientation: In a reporter assay the amount or activity of a reporter protein is the signal.

As for `COCCc1nc(-c2cc(-c3cccc(S(C)(=O)=O)c3)ccc2-n2cc(C(F)(F)F)nc2C)c(-c2ccc(OC(F)(F)F)cc2)o1` [Example 564, 2-(2-methoxyethyl)-4-(4-(2-methyl-4-(trifluoromethyl)-1H-imidazol-1-yl)-3′-(methylsulfonyl)-[1,1′-biphenyl]-3-yl)-5-(4-(trifluoromethoxy)phenyl)oxazole], it took 164 nM to reach a half-maximal effect (EC50) and the Emax is 57%.

With `Cc1nc(C(F)(F)F)cn1-c1ccc(-c2cccc(S(C)(=O)=O)c2)cc1-c1nc(CN(C)C)oc1-c1ccc(OC(F)(F)F)cc1` [Example 538, N,N-dimethyl-1-(4-(4-(2-methyl-4-(trifluoromethyl)-1H-imidazol-1-yl)-3′-(methylsulfonyl)-[1,1′-biphenyl]-3-yl)-5-(4-(trifluoromethoxy)phenyl)oxazol-2-yl)methanamine], the EC50 was found to be 205 nM and the Emax amounted to 79%.

With `Cc1nc(-c2cc(-c3cccc(S(C)(=O)=O)c3)ccc2-n2cc(C(F)(F)F)nc2C)c(-c2ccc(Cl)nc2)o1` [Example 550, 5-(6-chloropyridin-3-yl)-2-methyl-4-(4-(2-methyl-4-(trifluoromethyl)-1H-imidazol-1-yl)-3′-(methylsulfonyl)-[1,1′-biphenyl]-3-yl)oxazole], the EC50 turned out to be 625 nM and the Emax came to 85%.

Consider `Cc1nc(C(F)(F)F)cn1-c1ccc(-c2cc(F)c(CO)c(S(C)(=O)=O)c2)c(Cl)c1-n1nncc1-c1ccc(Cl)cc1Cl` [Example 103, {2′-chloro-3′-[5-(2,4-dichlorophenyl)-1H-1,2,3-triazol-1-yl]-3-fluoro-5-(methylsulfonyl)-4′-[2-methyl-4-(trifluoromethyl)-1H-imidazol-1-yl]biphenyl-4-yl}methanol], for which the response was half-maximal at 1240 nM (EC50) and the Emax stood at 52%.

Regarding `Cc1nc(C(F)F)cn1-c1ccc(-c2cccc(S(C)(=O)=O)c2)cc1-n1nncc1-c1ccc2c(c1)OC(F)(F)O2` [Example 167, 5-(2,2-difluoro-1,3-benzodioxol-5-yl)-1-{4-[4-(difluoromethyl)-2-methyl-1H-imidazol-1-yl]-3′-(methylsulfonyl)biphenyl-3-yl}-1H-1,2,3-triazole], the 50% effective concentration (EC50) came to 779 nM and the Emax is 107%.

As for `Cc1nc(C(F)(F)F)cn1-c1ccc(-c2cc(F)c(CO)c(S(C)(=O)=O)c2)cc1-c1nc(CCO)oc1-c1ccc2c(c1)OC(F)(F)O2` [Example 530, 2-(5-(2,2-difluorobenzo[d][1,3]dioxol-5-yl)-4-(3′-fluoro-4′-(hydroxymethyl)-4-(2-methyl-4-(trifluoromethyl)-1H-imidazol-1-yl)-5′-(methylsulfonyl)-[1,1′-biphenyl]-3-yl)oxazol-2-yl)ethanol], the 50% effective concentration (EC50) came to 739 nM and the Emax came to 71%.

On to `COCc1c(F)cc(-c2ccc(-n3cc(C(F)(F)F)nc3C)c(-n3nncc3-c3ccc(OC(F)(F)F)cc3)c2)cc1S(C)(=O)=O` [Example 88, 1-{3′-fluoro-4′-[(methyloxy)methyl]-5′-(methylsulfonyl)-4-[2-methyl-4-(trifluoromethyl)-1H-imidazol-1-yl]biphenyl-3-yl}-5-{4-[(trifluoromethyl)oxy]phenyl}-1H-1,2,3-triazole], for which the EC50 is 306 nM and the Emax amounted to 111%.

Regarding `Cc1nc(-c2cc(-c3cc(F)c(CO)c(S(C)(=O)=O)c3)ccc2-n2cc(C(F)(F)F)nc2C)c(-c2ccc(Cl)c(Cl)c2)o1` [Example 507, (3′-(5-(3,4-dichlorophenyl)-2-methyloxazol-4-yl)-3-fluoro-4′-(2-methyl-4-(trifluoromethyl)-1H-imidazol-1-yl)-5-(methylsulfonyl)biphenyl-4-yl)methanol], it took 35 nM to reach a half-maximal effect (EC50) and the Emax turned out to be 62%.

With `Cc1nc(-c2cc(-c3cccc(S(C)(=O)=O)c3)ccc2-n2cc(C(F)(F)F)nc2C)c(-c2ccc(F)c(C#N)c2)o1` [Example 506, 2-fluoro-5-(2-methyl-4-(4-(2-methyl-4-(trifluoromethyl)-1H-imidazol-1-yl)-3′-(methylsulfonyl)biphenyl-3-yl)oxazol-5-yl)benzonitrile], the midpoint of the response, the EC50, lay at 349 nM and the Emax came to 77%.

Regarding `Cc1nc(-c2cc(-c3cccc(S(C)(=O)=O)c3)ccc2-n2cc(C(F)(F)F)nc2C)c(-c2cc(F)cc(Cl)c2)o1` [Example 449, 5-(3-chloro-5-fluorophenyl)-2-methyl-4-(4-(2-methyl-4-(trifluoromethyl)-1H-imidazol-1-yl)-3′-(methylsulfonyl)biphenyl-3-yl)oxazole], the EC50 was found to be 183 nM and the Emax was 57%.

Turning to `Cc1nc(C(F)(F)F)cn1-c1ccc(-c2cccc(S(C)(=O)=O)c2)cc1-c1oc(CCO)nc1-c1ccc(Cl)cc1` [Example 618, 2-(4-(4-chlorophenyl)-5-(4-(2-methyl-4-(trifluoromethyl)-1H-imidazol-1-yl)-3′-(methylsulfonyl)-[1,1′-biphenyl]-3-yl)oxazol-2-yl)ethanol], the concentration giving a half-maximal response (EC50) worked out at 783 nM and the Emax is 66%.

Regarding `Cc1nc(-c2cc(-c3cc(F)c(CO)c(S(C)(=O)=O)c3)ccc2-n2cc(C(F)(F)F)nc2C)c(-c2cncc(Cl)c2)o1` [Example 421, (3′-(5-(5-chloropyridin-3-yl)-2-methyloxazol-4-yl)-3-fluoro-4′-(2-methyl-4-(trifluoromethyl)-1H-imidazol-1-yl)-5-(methylsulfonyl)biphenyl-4-yl)methanol], the EC50 stood at 218 nM and the Emax turned out to be 76%.

In the case of `Cc1nc(C(F)(F)F)cn1-c1ccc(-c2cccc(S(C)(=O)=O)c2)cc1-n1nncc1Cc1ccc(Cl)cc1` [Example 125, 5-[(4-chlorophenyl)methyl]-1-{3′-(methylsulfonyl)-4-[2-methyl-4-(trifluoromethyl)-1H-imidazol-1-yl]biphenyl-3-yl}-1H-1,2,3-triazole], the EC50 worked out at 355 nM and the Emax was determined as 83%.

In the case of `COc1ccc(-c2cnnn2-c2cc(-c3cccc(S(C)(=O)=O)c3)ccc2-n2cc(C(F)F)nc2C)cc1` [Example 166, 1-{4-[4-(difluoromethyl)-2-methyl-1H-imidazol-1-yl]-3′-(methylsulfonyl)biphenyl-3-yl}-5-[4-(methyloxy)phenyl]-1H-1,2,3-triazole], the response was half-maximal at 1650 nM (EC50) and the Emax is 78%.

As for `Cc1cc(-c2oc(C)nc2-c2cc(-c3cccc(S(C)(=O)=O)c3)ccc2-n2cc(C(F)(F)F)nc2C)cc(Cl)n1` [Example 451, 5-(2-chloro-6-methylpyridin-4-yl)-2-methyl-4-(4-(2-methyl-4-(trifluoromethyl)-1H-imidazol-1-yl)-3′-(methylsulfonyl)biphenyl-3-yl)oxazole], the EC50 amounted to 126 nM and the Emax came to 61%.

As to `Cc1nc(C(F)(F)F)cn1-c1ccc(-c2cc(F)c(CO)c(S(C)(=O)=O)c2)cc1-n1nncc1C(=O)c1ccc(C(F)(F)F)cc1` [Example 141, (1-{3′-fluoro-4′-(hydroxymethyl)-5′-(methylsulfonyl)-4-[2-methyl-4-(trifluoromethyl)-1H-imidazol-1-yl]biphenyl-3-yl}-1H-1,2,3-triazol-5-yl)[4-(trifluoromethyl)phenyl]meth-anone], the concentration giving a half-maximal response (EC50) was found to be 619 nM and the Emax is 106%.

For the molecule `CCOc1ncc(-c2oc(C)nc2-c2cc(-c3cc(F)c(CO)c(S(C)(=O)=O)c3)ccc2-n2cc(C(F)(F)F)nc2C)cc1F` [Example 472, (3′-(5-(6-ethoxy-5-fluoropyridin-3-yl)-2-methyloxazol-4-yl)-3-fluoro-4′-(2-methyl-4-(trifluoromethyl)-1H-imidazol-1-yl)-5-(methylsulfonyl)biphenyl-4-yl)methanol], the response was half-maximal at 199 nM (EC50) and the Emax was determined as 50%.

With `Cc1nc(-c2cc(-c3cc(F)c(CO)c(S(C)(=O)=O)c3)ccc2-n2cc(C(F)(F)F)nc2C)c(-c2ccc(OC(F)F)nc2)o1` [Example 385, (3′-(5-(6-(difluoromethoxy)pyridin-3-yl)-2-methyloxazol-4-yl)-3-fluoro-4′-(2-methyl-4-(trifluoromethyl)-1H-imidazol-1-yl)-5-(methylsulfonyl)biphenyl-4-yl)methanol], the response was half-maximal at 15 nM (EC50) and the Emax is 79%.
